These are literature values, as cited in patent US20220409829A1, “ANTIVIRAL THAT DESTROYS DNA AND/OR RNA OF VIRUSES AND VIROIDS” (priority 2021, published 2022).

For data set [1] the following is noted: FIG. 5.
The conditions of data set [2]: within 10 minutes; inhalation; FIG. 4.
For data set [3] the following is noted: FIG. 5. The source holds these as a separate data set.

As for `[N-]=[N+]=O` [nitrous oxide], the blood/gas partition coefficient in data set [1] is on record as 0.46. For the same compound, the “equilibration (Fa/Fi)” value in data set [2] is reported as “approximately 90%”. Besides, the agranulocytosis entry in the data set with bone marrow (after 4 days of exposure) is listed as “apparent”. Also, in the data set on bone marrow (exposure to anesthetic concentrations for 24 hours), the “Megaloblastic changes in bone marrow” value is on record as “observed”. Moreover, the minimum alveolar concentration in data set [3] is recorded as 105%.
